According to US20120108492A1, “LIGAND-SPECIFIC NON-ANTIBODY COMPOUNDS THAT INHIBIT CR2 ACTIVATION AND METHODS OF USE THEREOF” (The Regents of the University of Colorado, priority 2008, published 2012):
Where a SMILES comes first, the peptide text is derived from it. Bridges are numbered along the chain shown (N, C = ends). Where no end group is shown, it is not given here.

Assays:
CR2-C3d interaction = target: T1, CR2-C3d interaction (Homo sapiens, UniProt P20023); experiment: Peptide competition ELISA, CR2-C3d (bound C3d, solution phase MBP-CR2); type: binding
T1 construct: DNA corresponding to residues 1-133 of wild-type CR2 (SCR1-2) was PCR amplified; made in house; host or cells: E. coli (pMAL-P2X)
T1 sequence (P20023 21-153): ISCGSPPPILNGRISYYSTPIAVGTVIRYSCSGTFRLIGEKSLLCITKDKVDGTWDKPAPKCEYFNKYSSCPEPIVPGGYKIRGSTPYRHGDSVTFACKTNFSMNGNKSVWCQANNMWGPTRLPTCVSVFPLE

[1] = target: T2, CR2-EBV gp350 interaction (Homo sapiens, UniProt P20023); experiment: biochemical
[2] = target: T2, CR2-EBV gp350 interaction; conditions: peptides raised against CR2-C3d

Row | Compound | IC50 (CR2-C3d interaction) [µM] | also measured
1 | CC(C)C[C@@H]1NC(=O)[C@H](CO)NC(=O)CNC(=O)[C@H](CCC(=O)O)NC(=O)[C@H](CO)NC(=O)[C@@H](N)CSSC[C@@H](C(=O)O)NC(=O)CNC(=O)[C@H](CCCCN)NC1=O [gp350cp1] (H-CSEGSLKGC-OH; disulfide 1-9; N-terminus and C-terminus assumed) | – | effect on the CR2-C3d interaction (ligand specificity) (CR2-C3d interaction; peptide raised against CR2-EBV gp350): unaffected; IC50 [1]: 150 µM
2 | APAHLSSQ [control] | 700 | –
3 | APQALSSQYSRT [C3dp1.1] | 70 | –
4 | APQHLSSQ [C3dp1.3] | 40 | –
5 | APQHLSSQYSRT [C3dp1] | 100 | effect on the CR2-EBV gp350 interaction (ligand specificity) [2]: largely unaffected
6 | DPKNHVH [C3dcp1.1, DPKNHVH] | 95 | –
7 | IATANPRHHSTA [C3dp2.3] | 160 | –
8 | ISTSNPRAASTA [C3dp2.1] | 150 | –
9 | ISTSNPRH [C3dp2.2] | 190 | –
10 | ISTSNPRHHSTA [C3dp2] | 450 | –
11 | TRSYQSSLHQPA [C3dp1.2] | 70 | –
